Experimental data as given in patent US5011952A, “Phospholipase A2 inhibitor” (Shionogi & Co., Ltd., priority 1989, dated 1991).

Tests used:
[1] = target: T1, PLA2 released from thrombin-stimulated rat platelets (Rattus norvegicus, UniProt P14423); test: PLA2 inhibitory activity, rat platelet-derived PLA2; type: biochemical; settings: for inhibitory concentrations of α-thielocin versus β-thielocin: isomers equilibrated in the reaction solution
T1 construct: PLA2 released from thrombin-stimulated rat platelets; from tissue
T1 sequence (P14423 22-146): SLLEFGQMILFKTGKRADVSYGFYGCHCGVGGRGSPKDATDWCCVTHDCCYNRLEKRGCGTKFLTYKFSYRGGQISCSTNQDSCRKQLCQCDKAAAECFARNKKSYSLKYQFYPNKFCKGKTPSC
Experimental: PLA2 inhibitory activities of thielocin were determined according to the following procedure.
PLA2 released from thrombin-stimulated rat platelets was prepared by immuno-affinity chromatography using antibody MD 7.1-coupled Sepharose (Murakami et. al, J. Biochem 104: 884-888, 1988). The standard assay conditions included, 250 μl of Tris-HCl buffer (100 mM, pH 7.4), CaCl2 (3 mM), 40 μM [^14 C] phosphatidylethanolamine and enzyme. The reaction was started by the addition of the enzyme solution. Following incubation at 37° C. for 20 min the reactions were terminated by addition of 1.25 ml of Dole's reagent (Dole, V. P. & H, Meinerts, J. Biol. Chem 235: 2595-2599, 1960). Then released free fatty acid was extracted, and counted in Liquiflour (Du Pont-New England Nuclear) to determine the release of the radioactivity. Inhibition activity is expressed as percent of enzyme control.

Solubility in solvents = type: physicochemical
[2] = target: T2, PLA2 derived from porcine pancreas (Sus scrofa, UniProt P00592); test: PLA2 inhibitory activity, porcine pancreas-derived PLA2; type: biochemical; settings: read-out: concentration required for exhibiting 50 % inhibitory activity
T2 construct: porcine-derived PLA2; from tissue; host or cells: porcine pancreas
T2 sequence (P00592 23-146): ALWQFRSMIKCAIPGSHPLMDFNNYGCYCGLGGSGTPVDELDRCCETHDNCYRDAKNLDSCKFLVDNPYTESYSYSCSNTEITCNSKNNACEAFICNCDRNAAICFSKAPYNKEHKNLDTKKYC

snake venom-derived PLA2 = test: PLA2 inhibitory activity, snake venom-derived PLA2; type: biochemical

SMILES | inhibitory concentrations of α-thielocin versus β-thielocin [1] | Solubility (Solubility in solvents; acetone) | Solubility (Solubility in solvents; acetonitrile) | Solubility (Solubility in solvents; chloroform) | Solubility (Solubility in solvents; dimethylsulfoxide) | Solubility (Solubility in solvents; ethanol) | Solubility (Solubility in solvents; ethyl acetate) | Solubility (Solubility in solvents; ethyl ether) | Solubility (Solubility in solvents; hexane) | Solubility (Solubility in solvents; methanol) | Solubility (Solubility in solvents; petroleum ether) | Solubility (Solubility in solvents; water) | IC50 [2] [µM] | IC50 ([1]; rat platelet-derived PLA2, [14C]phosphatidylethanolamine substrate, 37° C., 20 min, read-out: concentration required for exhibiting 50 % inhibitory activity) [µM] | concentration required for exhibiting 50 % inhibitory activity (snake venom-derived PLA2) [µg/mL]
COc1c(C)c(OC(=O)c2c(C)c(C)c(OC(=O)C3=C(C)C(C)(O)C4(O)Oc5c(C)c(OC)c(C(=O)Oc6c(C)c(C)c(C(=O)O)c(OC)c6C)c(C)c5CC4(C)C3=O)c(C)c2OC)c(C)c(C)c1C(=O)O (stereo not drawn) [Thielocin α, α-thielocin] | not distinguished | Soluble | Soluble | Soluble | Soluble | slightly soluble | Soluble | sparingly soluble or insoluble | sparingly soluble or insoluble | slightly soluble | sparingly soluble or insoluble | sparingly soluble or insoluble |  |  | 
COc1c(C)c(OC(=O)c2c(C)c(C)c(OC(=O)C3=C(C)C(C)(O)C4(O)Oc5c(C)c(OC)c(C(=O)Oc6c(C)c(C)c(C(=O)O)c(OC)c6C)c(C)c5CC4(C)C3=O)c(C)c2OC)c(C)c(C)c1C(=O)O (stereo not drawn) [Thielocin β, β-thielocin] | not distinguished | slightly soluble | slightly soluble | slightly soluble | Soluble | slightly soluble | slightly soluble | sparingly soluble or insoluble | sparingly soluble or insoluble | slightly soluble | sparingly soluble or insoluble | sparingly soluble or insoluble |  |  | 
COc1c(C)c(OC(=O)c2c(C)c(C)c(OC(=O)C3=C(C)C(C)(O)C4(O)Oc5c(C)c(OC)c(C(=O)Oc6c(C)c(C)c(C(=O)O)c(OC)c6C)c(C)c5CC4(C)C3=O)c(C)c2OC)c(C)c(C)c1C(=O)O (stereo not drawn) [thielocin] |  |  |  |  |  |  |  |  |  |  |  |  | 47.1 | 0.00501 | 10
